Assay results from publication PMC4660620, “Aspidosperma (Apocynaceae) plant cytotoxicity and activity towards malaria parasites. Part II: experimental studies with Aspidosperma ramiflorum in vivo and in vitro” (Memórias do Instituto Oswaldo Cruz, 2015).

Tested on: Plasmodium berghei, the NK65 strain
Assay: Drug suppressive test against P. berghei in mice
Type: in vivo, Plasmodium berghei in Swiss outbred mice
Description: Adult Swiss outbred mice (20 ± 2 g weigh) were inoculated by the intraperitoneal route with 1 × 10^5 red blood cells infected withP. berghei, the NK65 strain. Groups of 20-30 infected mice were kept together for 2-24 h, then were divided randomly in groups of up to six animals per cage and were treated by gavage for three consecutive days with 25 mg/Kg or 50 mg/Kg of the test compounds diluted in DMSO 3% (v/v). Two control groups were used and either received CQ (20 mg/kg, diluted in water) or the drug vehicle. Smears prepared from the tail blood of the mice on days 5-10 post-infection were methanol-fixed, stained with Giemsa and examined microscopically.

CCN(CC)CCCC(C)Nc1ccnc2cc(Cl)ccc12 (stereo not drawn) [Chloroquine, chloroquine]
Mice survival (increase) (20 mg/kg, increase compared to survival of nontreated controls): > 8 days | Mice survival (mice, 20 mg/kg by gavage, three consecutive days): > 30 days | Parasitaemia reduction at day 10 (mice, 20 mg/kg by gavage, three consecutive days, in relation to untreated mice): 100%
